In PubChem BioAssay (NCI) one finds TGI and GI50 data, which are given here for 14 compounds.

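Where inhibition never reached the appropriate level, the endpoint shown equals the highest concentration tested. Otherwise, values were interpolated linearly from a five-concentration, 48-hour dose response in 96-well plates. Here, GI50 denotes the concentration required for 50% inhibition of growth. The concentration for full growth arrest is given as TGI.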 A value given as a limit tells only on which side of the number the result lay.

Holding throughout (test): inhibition of tumour cell growth, NCI panel, 48 h
Assay [1] relates to KM12 colon.
In assay [2] the test system is UACC-62 melanoma.
The subject of assay [3] is MDA-MB-435.
Assay [4] concerns OVCAR-5 ovarian.
Assay [5] concerns SK-MEL-28 melanoma.
The test system of assay [6] is SK-MEL-2 melanoma.
Assay [7] deals with MDA-MB-231 breast.
Assay [8] has as its system RPMI-8226 leukemia.
For assay [9], the system named is MALME-3M melanoma.
Assay [10] relates to EKVX NSCLC.

As for `CCOC(=O)/C=C/CC(C)(C)CCOC(C)=O`, the TGI in [1], in assay [2], in [3], in assay [4], in assay [5] and in assay [6] was over 10 µM throughout. For the same compound, the TGI in [7] and in assay [8] was over 10 µM throughout.

With `CC1CCc2nc[nH]c(=O)c21` (centres undefined), the GI50 in assay [1], in assay [2], in assay [9], in [3], in assay [4] and in assay [5] was over 100 µM each time. In addition, the GI50 in [6], in assay [7] and in assay [8] was over 100 µM in each case. In addition, the TGI in [1], in assay [2], in assay [9], in assay [3], in [4] and in assay [5] was over 100 µM each time. The TGI in assay [6], in assay [7] and in assay [8] was over 100 µM in each case.

As to `COC1/C=C/OC2(C)Oc3c(C)c(O)c4c(O)c(c(/C=N/Nc5ccc([N+](=O)[O-])cc5[N+](=O)[O-])c(O)c4c3C2=O)NC(=O)C(C)=C/C=C/C(C)C(O)C(C)C(O)C(C)C(OC(C)=O)C1C` (centres undefined), the GI50 is 1.71 µM in assay [1]; 1.37 µM in assay [2]; 1.21 µM in [9]; 4.75 µM in assay [10]; 1.28 µM in assay [3]; 3.59 µM in assay [4]. In addition, the values for the GI50 in assay [5], in [7] and in [8] were 1.45 µM, 1.32 µM and 1.96 µM, respectively. Further, the TGI was 6.68 µM in assay [1]; 5.08 µM in assay [2]; 6.13 µM in assay [9]; over 50 µM in assay [10]; 3.72 µM in [3]; 11.6 µM in assay [4]. The TGI in assay [5] is 5.23 µM; in [7], 4.01 µM; in [8], 14.5 µM.

For `CC(C)=CCC\C(C)=C/C=C/C(C)=C\C=C\C(C)=C/C=C/C=C(C)\C=C\C=C(C)/C=C/C=C(/C)CCC=C(C)C`, the TGI in [1], in assay [2], in [9], in assay [10], in assay [3] and in assay [4] was over 100 µM each time. The TGI in [5], in [6] and in assay [7] was over 100 µM each time.

Take `Nc1nc(-n2c(-c3ccccc3)nc3c(Br)cc(Br)cc3c2=O)nnc1-c1cccc(Cl)c1Cl`: the GI50 in [1] was 3.29 µM; in assay [2], 7.08 µM; in [10], 20.2 µM; in assay [3], 2.18 µM; in assay [4], 6.22 µM; in [5] it was over 100 µM. Besides, the results for the GI50 in [6], in assay [7] and in assay [8] were 83.8 µM, 4.22 µM and 6.05 µM, respectively. Besides, the TGI in assay [1] was 63.4 µM; in [2], 25.4 µM; in [10] it was over 100 µM; in [3] it was 6.81 µM; in assay [4], 50.9 µM; in assay [5] it was over 100 µM. In addition, the TGI is over 100 µM in assay [6], 18.3 µM in assay [7] and over 100 µM in [8].

As to `c1ccc(-c2nc(-c3ccccc3SSc3ccccc3-c3nc(-c4ccccc4)nn3-c3ccccc3)n(-c3ccccc3)n2)cc1`, the TGI in assay [1], in assay [2], in assay [9], in assay [10], in assay [3] and in [4] was over 100 µM in each case. The TGI in assay [5], in assay [7] and in assay [8] was over 100 µM in each case.

As for `OCc1cc2ccccc2c2c3c(ccc12)OCO3`, the GI50 was 35 µM in assay [1]; 21.5 µM in [2]; 48.1 µM in [9]; 39.3 µM in [3]; 40.9 µM in assay [4]; 35.3 µM in assay [5]. In addition, the GI50 in assay [6] was 32.2 µM; in [7], 29.1 µM; in assay [8] it was 26.2 µM. Moreover, the TGI in [1] turned out to be 137 µM; in [2] it was 74.2 µM; in assay [9], 209 µM; in [3] it was 160 µM; in assay [4] it was 207 µM; in [5], 350 µM. The TGI in assay [6] was 84.9 µM; in [7] it was 175 µM; in [8] it was 94.4 µM.

As to `Cc1nc2sccn2c1-c1csc(Nc2ccccc2Cl)n1`, the GI50 is 2.61 µM in assay [1]; 3.05 µM in [2]; 3.55 µM in assay [9]; 0.69 µM in [3]; 9.58 µM in assay [4]; 6.24 µM in assay [5]. The GI50 was 3.83 µM in [6], 3.33 µM in assay [7] and 1.93 µM in assay [8]. In addition, the TGI in assay [1] was 24.5 µM; in assay [2], 23.3 µM; in [9], 22.1 µM; in assay [3], 8.61 µM; in assay [4], 75.1 µM; in assay [5], over 100 µM. Further, the results for the TGI in assay [6], in assay [7] and in assay [8] were 17.9 µM, 27 µM and 19.1 µM, respectively.

For `Cn1cc(C2=C(c3c4n(c5ccccc35)CCCCC4)C(=O)NC2=O)c2ccccc21`, the GI50 in assay [1] is 2.97 µM; in assay [2] it was 1.27 µM; in assay [9] it was over 11.5 µM; in [3], 0.7 µM; in [4], over 19.5 µM; in assay [5], 12.6 µM. The GI50 was 2.12 µM in assay [6], 6.42 µM in [7] and 6.88 µM in [8]. Also, the TGI in assay [1] is over 25 µM; in assay [2], over 25 µM; in assay [9] it was over 25 µM; in [3] it was 3.01 µM; in [4], over 25 µM; in assay [5], over 25 µM. In addition, the TGI in [6] was over 18.8 µM; in assay [7], over 25 µM; in assay [8] it was over 19.2 µM.

Consider `COc1ccc2c(c1)sc1nc(-c3ccccc3)c(-c3cccc4ccccc34)n12`, for which the GI50 was 0.429 µM in assay [1]; 0.414 µM in assay [2]; over 100 µM in assay [9]; 1.61 µM in assay [10]; 2.07 µM in assay [4]; 0.417 µM in assay [5]. The GI50 in assay [6] is 1.67 µM; in assay [7], 1.32 µM; in assay [8], 0.99 µM. Further, the TGI in assay [1] was over 34.7 µM; in assay [2] it was over 100 µM; in assay [9], over 100 µM; in assay [10], over 100 µM; in assay [4] it was over 100 µM; in assay [5] it was over 100 µM. Also, the TGI in assay [6] is over 100 µM; in assay [7], over 100 µM; in assay [8] it was 27.4 µM.

For the compound `CN1CCCCC1CCN1c2ccccc2Sc2ccc(Cl)cc21` (centres undefined), the GI50 in [1] was 2.77 µM; in assay [2], 2.16 µM; in [9], 2.1 µM; in [3] it was 1.86 µM; in assay [4], 3.65 µM; in assay [5] it was 2.23 µM. The GI50 is 3.06 µM in assay [6], 2.09 µM in [7] and 3.17 µM in [8]. Further, the TGI turned out to be 7.38 µM in assay [1]; 5.61 µM in [2]; 4.25 µM in [9]; 4.04 µM in assay [3]; 14 µM in assay [4]; 5.9 µM in assay [5]. The TGI is 8.97 µM in [6], 6.32 µM in [7] and 9.29 µM in assay [8].

In the case of `COC(=O)CC[N+]1=CCC(c2ccccc2)(c2ccccc2)O1`, the TGI in assay [1], in assay [2], in assay [10], in assay [3], in assay [4] and in [5] was over 100 µM each time. Moreover, the TGI in assay [6] and in assay [7] was over 100 µM in each case.

In the case of `CCOC1Oc2ccccc2C(=O)/C1=C/Nc1ccc(C(C)=O)cc1` (centres undefined), the GI50 is 19.1 µM in [1]; 17.5 µM in assay [2]; 25.4 µM in [10]; 24.3 µM in [3]; 19.5 µM in [4]; 44.8 µM in [5]. The GI50 in assay [6] was 40.1 µM; in assay [7], 20 µM; in assay [8], 15.9 µM. Moreover, the TGI in assay [1] was 50.2 µM; in assay [2], 42 µM; in assay [10] it was 93.6 µM; in [3], 61.9 µM; in [4], 48.3 µM; in assay [5], over 100 µM. Besides, the TGI in assay [6] was over 100 µM; in [7] it was 47.8 µM; in assay [8] it was 68.3 µM.

As to `Nc1c(C(=O)c2cccc(CCS(N)(=O)=O)c2)cnn1-c1ccc(F)cc1`, the GI50 in assay [1], in assay [2], in [9], in assay [3], in [4] and in assay [5] was over 25 µM each time. The GI50 in [6], in assay [7] and in assay [8] was over 25 µM in each case. In addition, the TGI in assay [1], in [2], in assay [9], in assay [3], in [4] and in assay [5] was over 25 µM in each case. The TGI in assay [6], in [7] and in assay [8] was over 25 µM each time.
